The numbers were not newly measured in PubChem BioAssay AID1259409 (Chemical Carcinogenesis Research Information System (CCRIS), 2018), which cites them from elsewhere.

The data set deals with rodent chemically induced tumor inhibition, incidence and multiplicity. Nature of the data set: CCRIS tumor inhibitor studies.

Consider `C=C1C[C@H]2[C@@H]3C=C(C)C4=CC(=O)CC[C@]4(C)[C@H]3CC[C@]2(C)[C@@]1(OC(C)=O)C(C)=O`, for which the “tumour outcome (control, treated, inhibition, significance)” value runs as follows: (Carcinogen: NONE USED, Dose [Inhibitor]: 0, 0.1 MG/D IN DIET FOR THE DURATION OF STUDY (STUDY DURATION: LIFESPAN), Route [Inhibitor]: ORAL, Species: RAT, Strain/Sex: BDII/FEMALE, Target Tissue: Type of Lesion: UTERUS: ENDOMETRIAL CARCINOMA, Promoter: NONE USED) 17/20 (85%), 0/20 (0%), 100%, not calculated; (Carcinogen: NONE USED, Dose [Inhibitor]: 0, 0.2 MG/D IN DIET FOR THE DURATION OF STUDY (STUDY DURATION: LIFESPAN), Route [Inhibitor]: ORAL, Species: RAT, Strain/Sex: BDII/FEMALE, Target Tissue: Type of Lesion: UTERUS: ENDOMETRIAL CARCINOMA, Promoter: NONE USED) 17/20 (85%), 0/19 (0%), 100%, not calculated; (Carcinogen: NONE USED, Dose [Inhibitor]: 0, 0.4 MG/D IN DIET FOR THE DURATION OF STUDY (STUDY DURATION: LIFESPAN), Route [Inhibitor]: ORAL, Species: RAT, Strain/Sex: BDII/FEMALE, Target Tissue: Type of Lesion: UTERUS: ENDOMETRIAL CARCINOMA, Promoter: NONE USED) 17/20 (85%), 0/17 (0%), 100%, not calculated.
Consider `CCCCCCCCCCCCCCCCCCCCCCCCCCCCOC(=O)/C=C/c1ccc(O)c(OC)c1`, for which the “tumour outcome (control, treated, inhibition, significance)” value (Carcinogen: 7,12-DIMETHYLBENZ[A]ANTHRACENE, 57-97-6, Dose [Inhibitor]: 0, 2 UMOL IN ACETONE/DMSO (9:1) 2/WK FOR 20 WK BEGINNING 1 WK POST CARCINOGEN DOSE (STUDY DURATION: 20 WK), Route [Inhibitor]: DERMAL, Species: MOUSE, Strain/Sex: ICR/FEMALE, Target Tissue: Type of Lesion: SKIN: PAPILLOMA, Dose [Carcinogen]: 50 UG ONCE, Promoter: 12-O-TETRADECANOYLPHORBOL-13-ACETATE, 16561-29-8) is 100%, 20%, 80%, not calculated.
Regarding `O=C1C=CC(=O)O1` (tested in a mixture with another compound), the “tumour outcome (control, treated, inhibition, significance)” value is, setting by setting: (Carcinogen: N-BUTYL-N-(4-HYDROXYBUTYL)NITROSAMINE, 3817-11-6, Dose [Inhibitor]: 12.5 MG/KG IN 4 WK CYCLES OF 1/WK FOR 3 WK AND 1 WK REST STARTING 1 WK AFTER CARCINOGEN ADMINISTRATION THROUGH END OF ST, Route [Inhibitor]: INTRAPERITONEAL, Species: MOUSE, Strain/Sex: BDF1/MALE, Target Tissue: Type of Lesion: URINARY BLADDER: TRANSITIONAL CELL CARCINOMA, Dose [Carcinogen]: 7.5 MG 1/WK FOR 8 WK, Promoter: NONE USED) 19/50 (38%), 14/50 (28%), 26%, not significant; (Carcinogen: N-BUTYL-N-(4-HYDROXYBUTYL)NITROSAMINE, 3817-11-6, Dose [Inhibitor]: 12.5 MG/KG IN 4 WK CYCLES OF 3 WK DOSE (1 DOSE/WK) AND 1 WK REST STARTING 1 WK AFTER CARCINOGEN DOSE THROUGH END OF STUD, Route [Inhibitor]: INTRAPERITONEAL, Species: MOUSE, Strain/Sex: DBF1/MALE, Target Tissue: Type of Lesion: URINARY BLADDER: TRANSITIONAL CELL CARCINOMA, Dose [Carcinogen]: 7.5 MG 1/WK FOR 8 WK, Promoter: NONE USED) 19/50 (38%), 14/50 (28%), 26%, not significant; (Carcinogen: N-BUTYL-N-(4-HYDROXYBUTYL)NITROSAMINE, 3817-11-6, Dose [Inhibitor]: 25 MG/KG IN 4 WK CYCLES OF 1/WK FOR 3 WK AND 1 WK REST STARTING 1 WK AFTER CARCINOGEN ADMINISTRATION THROUGH END OF STUD, Route [Inhibitor]: INTRAPERITONEAL, Species: MOUSE, Strain/Sex: BDF1/MALE, Target Tissue: Type of Lesion: URINARY BLADDER: TRANSITIONAL CELL CARCINOMA, Dose [Carcinogen]: 7.5 MG 1/WK FOR 8 WK, Promoter: NONE USED) 19/50 (38%), 7/46 (15%), 61%, p<0.05; (Carcinogen: N-BUTYL-N-(4-HYDROXYBUTYL)NITROSAMINE, 3817-11-6, Dose [Inhibitor]: 25 MG/KG IN 4 WK CYCLES OF 3 WK DOSE (1 DOSE/WK) AND 1 WK REST STARTING 1 WK AFTER CARCINOGEN DOSE THROUGH END OF STUDY, Route [Inhibitor]: INTRAPERITONEAL, Species: MOUSE, Strain/Sex: DBF1/MALE, Target Tissue: Type of Lesion: URINARY BLADDER: TRANSITIONAL CELL CARCINOMA, Dose [Carcinogen]: 7.5 MG 1/WK FOR 8 WK, Promoter: NONE USED) 19/50 (38%), 7/46 (15%), 61%, p<0.05; (Carcinogen: N-METHYL-N-NITROSOUREA, 684-93-5, Dose [Inhibitor]: 12.5 MG/KG IN 4 WK CYCLES OF 1/WK FOR 3 WK AND 1 WK REST STARTING 7 D AFTER CARCINOGEN ADMINISTRATION THROUGH END OF STU, Route [Inhibitor]: INTRAPERITONEAL, Species: RAT, Strain/Sex: SPRAGUE-DAWLEY/FEMALE, Target Tissue: Type of Lesion: MAMMARY GLAND: ADENOCARCINOMA, Dose [Carcinogen]: 20 MG/KG BW ONCE, Promoter: NONE USED) 64%, 52%, 19%, not significant; (Carcinogen: N-METHYL-N-NITROSOUREA, 684-93-5, Dose [Inhibitor]: 12.5 MG/KG IN 4 WK CYCLES OF 3 WK DOSE (1 DOSE/WK) AND 1 WK REST STARTING 7 D AFTER CARCINOGEN DOSE THROUGH THE END OF S, Route [Inhibitor]: INTRAPERITONEAL, Species: RAT, Strain/Sex: SPRAGUE-DAWLEY/FEMALE, Target Tissue: Type of Lesion: MAMMARY GLAND: ADENOCARCINOMA, Dose [Carcinogen]: 20 MG/KG BW ONCE, Promoter: NONE USED) 64%, 52%, 19%, not significant. Moreover, the “tumour outcome (control, treated, inhibition, significance)” value is, setting by setting: (Carcinogen: N-METHYL-N-NITROSOUREA, 684-93-5, Dose [Inhibitor]: 25 MG/KG IN 4 WK CYCLES OF 1/WK FOR 3 WK AND 1 WK REST STARTING 7 D AFTER CARCINOGEN ADMINISTRATION THROUGH END OF STUDY, Route [Inhibitor]: INTRAPERITONEAL, Species: RAT, Strain/Sex: SPRAGUE-DAWLEY/FEMALE, Target Tissue: Type of Lesion: MAMMARY GLAND: ADENOCARCINOMA, Dose [Carcinogen]: 20 MG/KG BW ONCE, Promoter: NONE USED) 64%, 50%, 22%, not significant; (Carcinogen: N-METHYL-N-NITROSOUREA, 684-93-5, Dose [Inhibitor]: 25 MG/KG IN 4 WK CYCLES OF 3 WK DOSE (1 DOSE/WK) AND 1 WK REST STARTING 7 D AFTER CARCINOGEN DOSE THROUGH END OF STUDY (, Route [Inhibitor]: INTRAPERITONEAL, Species: RAT, Strain/Sex: SPRAGUE-DAWLEY/FEMALE, Target Tissue: Type of Lesion: MAMMARY GLAND: ADENOCARCINOMA, Dose [Carcinogen]: 20 MG/KG BW ONCE, Promoter: NONE USED) 64%, 50%, 22%, not significant.
For the compound `CC(=O)OCC(=O)[C@H]1CC[C@H]2[C@@H]3CCC4=CC(=O)CC[C@]4(C)[C@H]3CC[C@]12C`, the “tumour outcome (control, treated, inhibition, significance)” value is listed as 14/14 (100%), 13/13 (100%), 0%, not significant (Carcinogen: 1,2-DIMETHYLHYDRAZINE DIHYDROCHLORIDE, 306-37-6, Dose [Inhibitor]: 0, 10 MG/KG IN PEANUT OIL ON DAYS 1 AND 3 OF STUDY THEN 1/WK FOR 30 WK (STUDY DURATION: 31 WK), Route [Inhibitor]: SUBCUTANEOUS, Species: RAT, Strain/Sex: SPRAGUE-DAWLEY/MALE, Target Tissue: Type of Lesion: COLON: ADENOCARCINOMA, Dose [Carcinogen]: 9 MG/KG 1/WK FOR 7 WK THEN 19.4 MG/KG 1/WK FOR 13 WK, Promoter: NONE USED) and 13/14 (93%), 9/13 (69%), 26%, not significant (Carcinogen: 1,2-DIMETHYLHYDRAZINE DIHYDROCHLORIDE, 306-37-6, Dose [Inhibitor]: 0, 10 MG/KG IN PEANUT OIL ON DAYS 1 AND 3 OF STUDY THEN 1/WK FOR 30 WK (STUDY DURATION: 31 WK), Route [Inhibitor]: SUBCUTANEOUS, Species: RAT, Strain/Sex: SPRAGUE-DAWLEY/MALE, Target Tissue: Type of Lesion: SMALL INTESTINE: ADENOCARCINOMA, Dose [Carcinogen]: 9 MG/KG 1/WK FOR 7 WK THEN 19.4 MG/KG 1/WK FOR 13 WK, Promoter: NONE USED).
Take `CCC1OC(C)=C(O)C1=O` (configuration not stated): the “tumour outcome (control, treated, inhibition, significance)” value is, setting by setting: (Carcinogen: BENZO[A]PYRENE, 50-32-8, Dose [Inhibitor]: 0, 25 PPM IN DIET BEGINNING POST CARCINOGEN TREATMENT AND CONTINUING FOR DURATION OF STUDY (STUDY DURATION: 148 D), Route [Inhibitor]: ORAL, Species: MOUSE, Strain/Sex: ICR/FEMALE, Target Tissue: Type of Lesion: FORESTOMACH: TUMOR, Dose [Carcinogen]: 1.5 MG IN 0.2 ML CORN OIL 1/WK FOR 4 WK, Promoter: NONE USED) 100%, 76%, 24%, not calculated; (Carcinogen: BENZO[A]PYRENE, 50-32-8, Dose [Inhibitor]: 0, 50 PPM IN DIET BEGINNING POST CARCINOGEN TREATMENT AND CONTINUING FOR DURATION OF STUDY (STUDY DURATION: 148 D), Route [Inhibitor]: ORAL, Species: MOUSE, Strain/Sex: ICR/FEMALE, Target Tissue: Type of Lesion: FORESTOMACH: TUMOR, Dose [Carcinogen]: 1.5 MG IN 0.2 ML CORN OIL 1/WK FOR 4 WK, Promoter: NONE USED) 100%, 54%, 46%, not calculated; (Carcinogen: BENZO[A]PYRENE, 50-32-8, Dose [Inhibitor]: 0, 75 PPM IN DIET BEGINNING POST CARCINOGEN TREATMENT AND CONTINUING FOR DURATION OF STUDY (STUDY DURATION: 148 D), Route [Inhibitor]: ORAL, Species: MOUSE, Strain/Sex: ICR/FEMALE, Target Tissue: Type of Lesion: FORESTOMACH: TUMOR, Dose [Carcinogen]: 1.5 MG IN 0.2 ML CORN OIL 1/WK FOR 4 WK, Promoter: NONE USED) 100%, 75%, 25%, not calculated.
